Patent US20230106519A1, “GOLD(III)-BIGUANIDE PRODRUGS, METHODS OF PREPARATION AND USES THEREOF” (National University of Singapore, priority 2020, published 2023)
Entries after “also recorded” stand apart in the source; their conditions may differ. Like-named read-outs stand apart in the source and are kept apart here.

How the values were obtained:
rat liver TrxR = target: T1, rat liver TrxR (Rattus norvegicus, UniProt O89049); assay: Thioredoxin reductase inhibition, DTNB reduction assay
T1 sequence (O89049 1-499): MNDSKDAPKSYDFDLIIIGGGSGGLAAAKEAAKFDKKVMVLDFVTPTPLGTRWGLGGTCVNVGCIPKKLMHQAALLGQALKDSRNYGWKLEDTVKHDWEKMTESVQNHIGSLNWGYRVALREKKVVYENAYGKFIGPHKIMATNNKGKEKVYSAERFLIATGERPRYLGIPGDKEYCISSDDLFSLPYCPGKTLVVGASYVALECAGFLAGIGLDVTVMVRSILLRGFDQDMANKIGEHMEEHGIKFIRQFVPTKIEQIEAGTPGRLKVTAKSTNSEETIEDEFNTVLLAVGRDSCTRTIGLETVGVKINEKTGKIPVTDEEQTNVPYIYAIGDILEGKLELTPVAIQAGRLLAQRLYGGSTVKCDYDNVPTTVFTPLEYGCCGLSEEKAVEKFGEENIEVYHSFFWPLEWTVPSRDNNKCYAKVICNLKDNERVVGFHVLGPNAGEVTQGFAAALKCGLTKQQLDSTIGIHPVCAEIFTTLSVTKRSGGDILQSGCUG
Protocol: Thioredoxin reductase inhibition assay. Assay was performed according to the protocol provided by the manufacturer. […] Compounds of interest were serially diluted at the separate 96-well plate and 4 μl of each concentration was added to the appropriate wells. The reaction mixture was incubated with gentle shaking (room temperature, 30 minutes). Subsequently, 6 μl of DNTB (100 mM) was added and incubated for an additional 3 minutes.
Compounds of interest at six different concentrations were incubated with the isolated rat liver TrxR enzyme in the presence of NADPH for 30 minutes, followed by 2 minutes incubation with the DNTB reagent.

MDA-MB-231 cells [1] = assay: Annexin V/PI apoptosis assay; conditions: MDA-MB-231, 24 hours, equipotent concentrations
Protocol: Annexin V/PI apoptosis assay. MDA-MB-231 cells were seeded into Cellstar 12-well plates (Greiner Bio-One) at a density of 20×10^4 cells/well (1 mL per well). […] After the supernatant solution was collected in 1.5 mL microtubes, the cells were washed with 100 μl of trypsin, which was combined with the supernatant. Subsequently, cells were trypsinized with 200 μl trypsin for 5 minutes at 37° C., 5% CO2, washed with 200 μl of PBS and combined with the supernatant. The cells were centrifuged at 2.5×10^3 rpm for 5 minutes and the pellets were washed once with PBS and resuspended in 500 μl of Annexin V binding buffer and stained with Annexin V-FITC and PI reagents. The fluorescence was immediately analyzed by flow cytometry. The resulting dot blots were acquired from 10000 events and quantified using Flowjo software (Flowjo LLC, Ashland, Oreg., USA).
MDA-MB-231 cells were treated with the compounds of interest at equipotent concentrations, corresponding to their IC50 values (FIG. 57).

[2] = system: A2780 (ovarian carcinoma); assay: MTT cytotoxicity assay, A2780; conditions: read-out: EC50 A2780
Protocol: (§1) Human ovarian carcinoma cells A2780 and A2780cisR, and human breast adenocarcinoma MDA-MB-231 cells, murine hepatocytes TAMH and human cardiomyocytes AC10 were obtained from ATCC. […] The stock of cisplatin was commercially available clinical grade solution in saline buffer.
(§2) Inhibition of cell viability assay. The cytotoxicity of the compounds was determined by colorimetric MTT assay. The cells were harvested from culture flasks by trypsinization and seeded into Cellstar 96-well microculture plates at the seeding density of 6000 cells per well (6×10^4 cells/mL). TAMH and AC10 cells were seeded at 12000 and 5000 cells per well, respectively. After cells were allowed to resume exponential growth for 24 hours, they were exposed to drugs at different concentrations in media for 72 hours. The drugs were diluted in complete medium at the desired concentration and added to each well (100 μL) and serially diluted to other wells. After exposure for 72 hours, the media was replaced with MTT in media (5 mg/mL, 100 μL) and incubated for additional 45 minutes. Subsequently, the medium was aspirated and the purple formazan crystals formed in viable cells were dissolved in DMSO (100 μL). Optical densities were measured at 570 nm using the BioTek H1 Synergy microplate reader. […] Evaluation was based on means from at least three independent experiments, each comprising six replicates per concentration level.

[3] = system: TAMH (transforming growth factor-a transgenic mouse hepatocytes); assay: MTT toxicity assay in hepatocytes TAMH; conditions: read-out: EC50 TAMH, exposure time 72 hours
Protocol: (§3) Cell lines and culture conditions. Human ovarian carcinoma cells A2780 and A2780cisR, and human breast adenocarcinoma MDA-MB-231 cells, murine hepatocytes TAMH and human cardiomyocytes AC10 were obtained from ATCC.
Inhibition of cell viability assay. The cytotoxicity of the compounds was determined by colorimetric MTT assay. The cells were harvested from culture flasks by trypsinization and seeded into Cellstar 96-well microculture plates at the seeding density of 6000 cells per well (6×10^4 cells/mL). TAMH and AC10 cells were seeded at 12000 and 5000 cells per well, respectively. After cells were allowed to resume exponential growth for 24 hours, they were exposed to drugs at different concentrations in media for 72 hours. The drugs were diluted in complete medium at the desired concentration and added to each well (100 μL) and serially diluted to other wells. After exposure for 72 hours, the media was replaced with MTT in media (5 mg/mL, 100 μL) and incubated for additional 45 minutes. Subsequently, the medium was aspirated and the purple formazan crystals formed in viable cells were dissolved in DMSO (100 μL). Optical densities were measured at 570 nm using the BioTek H1 Synergy microplate reader. […] Evaluation was based on means from at least three independent experiments, each comprising six replicates per concentration level. […]

[4] = system: A2780cisR (ovarian carcinoma); assay: MTT cytotoxicity assay, A2780cisR; conditions: for RF (Resistance Factor): IC50 (A2780cisR)/IC50 (A2780); for EC50: read-out: EC50 A2780cisR
Protocol: as §1, §2

[5] = system: AC10 (human ventricular cardiomyocytes); assay: MTT toxicity assay in cardiomyocytes AC10
Protocol: as §3
Inhibition of cell viability assay. The cytotoxicity of the compounds was determined by colorimetric MTT assay. The cells were harvested from culture flasks by trypsinization and seeded into Cellstar 96-well microculture plates at the seeding density of 6000 cells per well (6×10^4 cells/mL). TAMH and AC10 cells were seeded at 12000 and 5000 cells per well, respectively. After cells were allowed to resume exponential growth for 24 hours, they were exposed to drugs at different concentrations in media for 72 hours. The drugs were diluted in complete medium at the desired concentration and added to each well (100 μL) and serially diluted to other wells. After exposure for 72 hours, the media was replaced with MTT in media (5 mg/mL, 100 μL) and incubated for additional 45 minutes. Subsequently, the medium was aspirated and the purple formazan crystals formed in viable cells were dissolved in DMSO (100 μL). Optical densities were measured at 570 nm using the BioTek H1 Synergy microplate reader. […] Evaluation was based on means from at least three independent experiments, each comprising six replicates per concentration level. For experiments with inhibitors, MDA-MB-231 cells were seeded at the seeding density of 8000 cells per well (8×10^4 cells/mL).

[6] = system: MDA-MB-231 (breast adenocarcinoma); assay: MTT cytotoxicity assay, MDA-MB-231; conditions: for EC50: read-out: EC50 MDA-MB-231
Protocol: as §1, §2

MDA-MB-231 cells [7] = assay: Cellular accumulation of Au by ICP-MS; conditions: ICP-MS after 24 hour exposure at 1.4 μM
Protocol: Cellular accumulation of Au complexes was determined in MDA-MB-231 cells. Cells were seeded into Cellstar 6-well plates (Greiner Bio-one) at a density of 60×10^4 cells/well (2 mL per well). After the cells were allowed to resume exponential growth for 24 hours, they were exposed to compounds of interest at various concentrations for 24 hours at 37° C. The cells were washed twice with 1 mL of PBS and lysed with RIPA lysis buffer for 5-10 min at 4° C. The cell lysates were scraped from the wells and transferred to separate 1.5 mL microtubes. The supernatant was then collected after centrifugation (13000 rpm, 4° C. for 15 minutes) and total protein content of each sample was quantified via Bradford's assay. […] The resulting solution was diluted to 1 mL (2-4% v/v HNO3) with ultrapure Milli-Q water. Au content of each sample was quantified by ICP-MS. Re was used as an internal standard. […] Metal standards for calibration curve (0, 0.5, 1, 2, 5, 10, 20, 40 ppb) were freshly prepared before each measurement. All readings were made in triplicates in He mode.

[8] = Stability in ammonium carbonate buffer by high resolution ESI-MS; conditions: ammonium carbonate buffer pH 7.4, 37° C., 1, 3 and 24 hours
Protocol: NMR and mass spectrometric (MS) methods were employed to characterize the stability of Au complexes in DMSO and aqueous media. ^1H NMR stability studies were performed over the period of 6-10 days in d^6-DMSO and D2O (1met*).

[9] = Reactivity towards glutathione, ligand release (HR-MS, UV-vis); format: physicochemical; conditions: with GSH; HR-MS and UV-vis
Text: NMR- and MS-based stability studies.
Intriguingly, the reactivity of Au^III-metformin complexes towards GSH was drastically different despite their similar structures.

MDA-MB-231 tumors = conditions: 250 mg/kg; cited from earlier work
[10] = system: MDA-MB-231 (breast adenocarcinoma)
Protocol: as §1, §2

[11] = system: AMPK-mTOR energy signaling pathway; conditions: MDA-MB-231, 0.5×-2×EC50, 2, 6, 24 hours
Protocol: Western blotting. MDA-MB-231 cells were seeded into Cellstar 6-well plates (Greiner Bio-One) at a density of 60×10^4 cells/well (2 mL per well). After the cells were allowed to resume exponential growth for 24 hours, they were exposed to compounds of interest at various concentrations for 2, 6 and 24 hours. The cells were washed twice with PBS and lysed with RIPA buffer (50-100 μL) and kept for 5-10 minutes at 4° C. The samples were sonicated in ice bath (3 times for 30 seconds). […] Equal quantities of protein (50 μg) were reconstituted in loading buffer (5× Laemmli Buffer with 5% DTT) and heated at 100° C. for 10 minutes. […] The protein bands were visualised with Ponceau S stain solution and the nitrocellulose membranes were cut into strips based on the protein ladder. The membranes were washed with a TBS-T wash buffer (0.1% Tween-20 in 1×PBS) 3 times for 5 minutes. Subsequently, they were blocked in 5% BSA (w/v) in wash buffer for 1 hour and incubated with the appropriate primary antibodies in 5% BSA (w/v) in wash buffer at 4° C. overnight. The membranes were washed with a wash buffer 3 times for 7 minutes. […] Immune complexes were detected with Luminata HRP substrates and analysed using enhanced chemiluminescence imaging. […]

[12] = MTT assay, exposure time 72 hours

Protocol for Cyclic voltammetry: Cyclic voltammetry and spectroelectrochemistry. Cyclic voltammetry experiments with approximately 0.5 mM solutions of investigated gold complexes in 0.1 M nBu4NPF6 supporting electrolyte in dimethylsulphoxide (DMSO) or in pH 7 buffered solutions were performed under argon atmosphere using a three-electrode arrangement with glassy carbon 1 mm disc working electrode (from lonode, Australia), platinum wire as counter electrode, and silver wire as pseudo-reference electrode. Ferrocene (Fc) served as the internal potential standard for DMSO and potassium hexacyanoferrate(II) for aqueous solutions. […] The cell was positioned in the CUV-UV Cuvette Holder (Ocean Optics) connected to the diode-array UV-vis-NIR spectrometer by optical fibres. UV-vis-NIR spectra were processed using the AvaSoft 7.7 software package. Halogen and deuterium lamps were used as light sources (Avantes, Model AvaLight-DH-S-BAL).

## CN(C)C1=[NH+][Au-]2([NH]C(N)=N1)[c]1ccccc1-c1cccc[n+]12 (centres unmarked) [1met*]
Rat liver TrxR
  IC50: 0.0012 ± 0.0005 µM

## N.N.[Cl][Pt][Cl] [Cisplatin]
MDA-MB-231 cells [1]
  apoptotic cell population: markedly lower
[2]; [12]
  EC50: 0.6 ± 0.05 µM
[3]
  EC50: 52 ± 7 µM
[4]
  RF (Resistance Factor): 18
[4]; [12]
  EC50: 11 ± 2 µM
[5]; read-out: EC50 AC10, MTT assay, exposure time 72 hours
  EC50: 10 ± 2 µM
[6]; [12]
  EC50: 27 ± 8 µM

## [Cl][Au-]1([Cl])[c]2ccccc2-c2cccc[n+]21 [Compound 1, (2-phenylpyridine)AuCl2]
MDA-MB-231 cells [1]
  apoptotic cell population: significantly higher
[2]; [12]
  EC50: 2 ± 0.4 µM
MDA-MB-231 cells [7]
  Cellular accumulation MDA-MB-231: 0.36 ± 0.10 nmol Au/mg protein
[4]
  RF (Resistance Factor): 2
[4]; [12]
  EC50: 4 ± 0.8 µM
[6]; [12]
  EC50: 7.8 ± 1.7 µM

## NC1=NC(NCCc2ccccc2)=[NH+][Au-]2([NH]1)[c]1ccccc1-c1cccc[n+]12 (centres unmarked) [Compound 1phen]
[8]
  stability, detection of molecular ion [M]+: not detected after 1 hour incubation
Rat liver TrxR
  IC50: 0.0031 ± 0.0015 µM
MDA-MB-231 cells [1]
  apoptotic cell population: no changes in apoptotic population
[9]
  reactivity towards GSH / ligand release in words: release of phenformin was detected; also recorded: Only the peak at m/z 206.1622, which corresponds to free phenformin, was observed
[6]; tested cancer cell lines, MTT 72 h
  cytotoxicity in words: least cytotoxic representative of this series

## [Cl][Au-]1([Cl])[c]2ccccc2Cc2cccc[n+]21 [Compound 2, (2-benzylpyridine)Au^IIICl2]
[2]; [12]
  EC50: 6.5 ± 0.8 µM
MDA-MB-231 cells [7]
  Cellular accumulation MDA-MB-231: 0.14 ± 0.03 nmol Au/mg protein
[4]
  RF (Resistance Factor): 1
[4]; [12]
  EC50: 7.2 ± 1.5 µM
[6]; [12]
  EC50: 7.1 ± 0.4 µM

## CN(C)C1=[NH+][Au-]2([NH]C(N)=N1)[c]1ccccc1Cc1cccc[n+]12 (centres unmarked) [Compound 2met]
[8]
  stability, detection of molecular ion [M]+: stable for 24 hours
Rat liver TrxR
  IC50: 0.00055 ± 9e-05 µM
[9]
  reactivity towards GSH / ligand release in words: stable both in the absence and presence of GSH; also recorded: did not significantly change over time

## O=C1c2cccc[c]2[Au-]([Cl])([Cl])[n+]2ccccc21 [Compound 3, (2-benzoylpyridine)Au^IIICl2]
[2]; [12]
  EC50: 8.6 ± 1.7 µM
MDA-MB-231 cells [7]
  Cellular accumulation MDA-MB-231: 0.14 ± 0.05 nmol Au/mg protein
[4]
  RF (Resistance Factor): 1
[4]; [12]
  EC50: 9.1 ± 2.9 µM
[6]; [12]
  EC50: 19 ± 3 µM

## CN(C)C(=N)N=C(N)N [Metformin]
MDA-MB-231 cells [1]
  apoptotic cell population: markedly lower
[2]; Homo sapiens, A2780, 72 h
  EC50: > 1000 µM
MDA-MB-231 tumors
  anticancer effects in an MDA-MB-231 mammary fat model: negligible
Cyclic voltammetry
  redox activity in words: did not show any redox activity
[10]
  cytotoxicity in words: devoid of cytotoxicity
[4]; Homo sapiens, A2780cisR, 72 h
  EC50: > 1000 µM
[6]; Homo sapiens, MDA-MB-231, 72 h
  EC50: > 1000 µM

## [H]/N=C(/N)N/C(=N/[H])NCCc1ccccc1 [Phenformin]
[2]; Homo sapiens, A2780, 72 h
  EC50: 104 ± 21 µM
[4]; Homo sapiens, A2780cisR, 72 h
  EC50: 246 ± 24 µM
[6]; Homo sapiens, MDA-MB-231, 72 h
  EC50: 608 ± 23 µM

## COc1cccc2c1C(=O)c1c(O)c3c(c(O)c1C2=O)C[C@@](O)(C(=O)CO)C[C@@H]3O[C@H]1C[C@H](N)[C@H](O)[C@H](C)O1 [doxorubicin]
[5]; read-out: IC50 value in AC10 cells (heart toxicity)
  IC50: 2.3 ± 0.2 µM

## [Au^III(2-phenylpyridine)(metformin)]PF6 [Compound 1met]
[11]
  AMPK and mTOR phosphorylation: dose-dependent increase of AMPK phosphorylation and decrease of mTOR phosphorylation
